From publication PMC9499506, “TNF-α and IL-1β Modulate Blood-Brain Barrier Permeability and Decrease Amyloid-β Peptide Efflux in a Human Blood-Brain Barrier Model” (International Journal of Molecular Sciences, 2022) come the findings set out here.

The test system of one test is BLEC monolayer. Put plainly: Effect of cytokines on BLEC monolayer permeability to lucifer yellow (PeLY). Type of test: cell-based, human. To be noted: for increase in transcellular passage of LY through BLEC monolayer compared to control / increase in paracellular passage of LY through BLEC monolayer compared to control: 10 ng·mL^−1, 24 h; for increase in transcellular passage of LY through BLEC monolayer compared to control: PeLY 37 °C minus PeLY 4 °C; for increase in paracellular passage of LY through BLEC monolayer compared to control: PeLY at 4 °C; for PeLY of BLECs after cytokine treatment: 10 ng·mL^−1 basolateral, 24 h, LY 50 µM apical-to-basolateral, RH buffer, 37 °C, 60 min, untreated 0.54 ± 0.03, mean ± SEM. The procedure:
Next, we examined the effect of TNF-α and IL-1β on BBB permeability. The physical integrity of the BLECs was monitored by measuring the rate of passage of the small hydrophilic marker lucifer yellow (LY; ~400 Da) from the upper to the lower compartment to calculate the endothelial permeability coefficient of LY (PeLY).
To discriminate the impact of TNF-α and IL-1β on these different pathways and based on our previous PeLY results obtained at 37 °C informing on the global crossing of PeLY (paracellular and transcellular), a PeLY experiment was also performed at 4 °C. […] Thus, inhibition of the transcellular transport allows us to observe only the modification on the paracellular permeability. Then, the transcellular transport of LY, corresponding to the difference between global PeLY and PeLY at 4 °C, was determined.
(§1) Each condition was studied in triplicate.
The BLEC monolayer integrity was evaluated after each treatment using the method described by Dehouck and colleagues. The endothelial permeability coefficient (Pe) was evaluated regarding the apical-to-basolateral transport of the LY integrity marker used at a final concentration of 50 µM in RH buffer at 37 °C. Briefly, the inserts containing BLECs were transferred to a new 12-well plate containing warm RH buffer (corresponding to the basolateral compartment), and then a volume of 500 µL of warm RH with 50 µM of LY buffer was added to the apical compartment. The inserts containing the BLECs and RH buffer with 50 µM of LY were then transferred to a new well containing warm RH every 20 min for 1 hour. […] For each condition, coculturing was performed in triplicate. To determine the PeLY values for BLECs, the slope of the clearance curves (PS = permeability × surface area product; in µL·min^−1) corresponding to the volume cleared from the apical to the basolateral compartment (in µL) for 60 min was calculated for the filters with only Matrigel coating and for those with Matrigel coating and BLECs, denoted PSf and PSt, respectively. From these values, the PS values for BLECs (PSe) were determined according to the formula “[…]”. Then, the PeLY values for BLECs (in cm·min^−1) were obtained by the calculation “PeLY = PSe/S”, with PSe in cm^3·min^−1 and S being the filter surface area (= 1.12 cm^2). The same experiment was also performed at 4 °C to block the transcellular permeability of LY and to identify only the paracellular permeability of LY. Following these experiments, the transcellular permeability can be deduced, which corresponds to the PeLY values at 37 °C subtracted by those of PeLY at 4 °C. The mass balance (in %) was determined from the amount of LY in the apical and basolateral compartment at the end of the experiment divided by the total amount initially added in the apical compartment at time zero. To be taken into consideration for the Pe determination, the mass balance should be between 80% and 120%.

Another test concerns BLECs. Put plainly: Western immunoblotting of junctional proteins in BLECs. To be noted: 10 ng·mL^−1, 24 h. Type of test: cell-based, human. As to the method: as §1
After 24 h of treatments with or without proinflammatory cytokines, BLECs were washed twice with cold RH buffer and scraped with 70 μL of RIPA 1X lysis buffer (10 mM Tris-Cl (pH 8.0), 1 mM EDTA, 0.5 mM EGTA, 1% Triton X-100, 0.1% sodium deoxycholate, 0.1% SDS, 140 mM NaCl) (Merck Millipore, Burlington, MA, USA) or UT4 lysis buffer (7M Urea, 2M Thiourea, 4% CHAPS), both supplemented with a cocktail of phosphatase and protease inhibitors (1% protease inhibitors cocktail #P8340; 1% phosphatase inhibitors cocktail 1 P2850; 1% phosphatase inhibitors cocktail 2 #P5726; 1% protease inhibitors cocktail #P8340) purchased from Sigma-Aldrich (Lyon, France). Then, a centrifugation at 10,000 rpm for 10 min at 4 °C was achieved to save the supernatant of the lysate. This was later sonicated two times for 5 s on ice. The concentration of the protein lysate was quantified using the Bradford method (#5000006; rad, Munich, Germany). The protein samples were then stored at −20 °C.
20 μg of total protein was mixed with Laemmli 4X (#1610747; Biorad, Munich, Germany) supplemented with β-mercaptoethanol (Sigma-Aldrich, Germany). Depending on the protein target, details of the denaturation and reduction steps of the protein extract are described in Table 3. Then, the protein mixes were electrophoresed using Criterion™ TGX™ (Tris-Glycine eXtended) precast gels (Biorad, Munich, Germany) and subsequently electrotransferred to nitro-cellulose membranes (GE Healthcare, Munich, Germany). Once the previous step was completed, Tris-buffered saline 0.1% Tween 20 (TBST; 20 mM Tris-HCl, pH 8.0, 500 mM NaCl, 0.1% Tween 20) supplemented with 5% skimmed milk was added on membrane to block nonspecific binding sites for 1 h under agitation at RT. Membranes were incubated in the appropriate primary antibodies (as described in Table 3) and incubated at 4 °C overnight, except β-actin (20 min at RT).
The following morning, the membranes were rinsed with TBST three times for 5 min each under agitation, and then incubated with the horseradish peroxidase-conjugated secondary antibody anti-rabbit (1:8000, Dako/Agilent Technologies, Inc., Santa Clara, CA, USA) or secondary antibody anti-mouse (1:5000, Dako/Agilent Technologies, Inc., Santa Clara, CA, USA) for 1 h at RT. […] Quantification of the relative densities of bands was performed with TotalLab TL 100 1D Gel Analysis software (Nonlinear Dynamics, Newcastle, UK). The protein expression normalization was conducted with anti-β-actin. Studies were performed with at least three independent experiments, with at least two Western immunoblottings per experiment.

Take interleukin-1β [IL-1β]: in the test with BLEC monolayer, the “increase in transcellular passage of LY through BLEC monolayer compared to control” value was determined as 94.2%, the “increase in paracellular passage of LY through BLEC monolayer compared to control” value worked out at 41.3% and the “PeLY of BLECs after cytokine treatment” value was 0.95 ± 0.05 × 10^−3 cm·min^−1. The “greater increase in transcellular passage of LY with IL-1β compared to TNF-α treatment” value in the test on BLEC monolayer (both 10 ng·mL^−1, 24 h) was determined as 54.2%. In the test on BLECs, the “Claudin-5 protein levels versus control” value is “not reflected by a change in Claudin-5 protein levels”. For the same substance, in the test on BLECs (normalized to β-actin), the “decrease of ZO-1 protein expression compared to control” value was 26.4%, the “decrease of claudin-3 protein level compared to control” value is on record as 73.1%, the “decrease of occludin protein level compared to control” value is 33.5% and the “decrease of tricellulin protein level compared to control” value came out at 51.0%.

As for tumor necrosis factor-α [TNF-α], in the test on BLEC monolayer, the “increase in transcellular passage of LY through BLEC monolayer compared to control” value stood at 40.1%, the “increase in paracellular passage of LY through BLEC monolayer compared to control” value is reported as 175.2% and the “PeLY of BLECs after cytokine treatment” value is 1.00 ± 0.03 × 10^−3 cm·min^−1. Moreover, in the test on BLEC monolayer (both 10 ng·mL^−1, 24 h), the “greater increase in paracellular passage of LY with TNF-α compared to IL-1β treatment” value is listed as 133.9%. Moreover, in the test on BLECs (normalized to β-actin), the “VE-cadherin protein level versus control” value is “not significantly different”, the “ZO-1 protein level versus control” value was “not significantly different”, the “decrease of claudin-3 protein level compared to control” value was 57.3% and the “decrease of occludin protein level compared to control” value is on record as 38.1%. In addition, in the test with BLECs (normalized to β-actin), the “decrease of tricellulin protein level compared to control” value was found to be 50.9% and the “increase of Claudin-5 protein expression compared to control” value stood at 40.2%.
